Laboratory results reported in patent US10328092B2, “Methods and compositions for treatment of drug addiction” (The Royal Institution for the Advancement of Learning / …, priority 2015, dated 2019).

Test system: D1-MSNs in the NAc core
Test: AMPA/NMDA ratio on D1-MSNs after in vivo treatment
Design: species or system mouse
Procedure: Repeated non-contingent administration of cocaine results in lower AMPA/NMDA ratios of excitatory inputs onto the NAc specifically on the D1-MSN subtype (Kim et al., 2011; Pascoli et al., 2012). To test whether the decrease in AMPA/NMDA ratios after repeated drug administration is due to the increase in TNFα expression, the AMPA/NMDA ratio was evaluated on D1 and D2 MSNs in the NAc core following cocaine or saline administration in WT and TNFα^−/− mice. […] This is consistent with the exocytosis of AMPARs observed with direct stimulation of D1Rs on MSNs (Mangiavacchi and Wolf, 2004). […] To test the hypothesis that potentiated D1-MSNs are more sensitive to TNFα, TNFα mice were treated with a single injection of cocaine and the effect of a low level of TNFα (10 ng/ml) on AMPA/NMDA ratios was evaluated. […] This treatment had no effect on D2-MSNs (FIG. 9B). To test whether cocaine-induced TNFα signaling would occlude further TNFα synaptic depression, wildtype animals were treated with cocaine for 5 days, and then treated striatel slices ex-vivo with TNFα (100 ng/ml). The AMPA/NMDA ratio on D1-MSNs (already reduced compared to saline treated animals; FIG. 5E) was not further reduced by treatment with TNFα (FIG. 5G).
Because depotentiation of MSNs reduced cocaine-induced behavioural sensitization (Pascoli et al., 2012), it was tested whether re-activation of microglia would depress NAc synapses and suppress sensitization. To do this, monophosphoryl lipid A (MPLA), a detoxified variant of LPS, was used (Casella and Mitchell, 2008). MPLA acts as a weak TLR4 agonist that is at least 100-fold less pyrogenic than LPS (Cluff, 2010) and is used in humans as an adjuvant for several vaccine formulations. […] It was verified that MPLA activates microglia in the striatum, by injecting 10 μg MPLA IP after 10 days withdrawal from cocaine. […] This is consistent with previous observations that MPLA acts as a microglia modulator (Michaud et al., 2013). […] It was next tested if MPLA treatment would depress synaptic strength in the NAc core. After 10 days of withdrawal, animals were injected with MPLA and evaluated 24 hours later for AMPA/NMDA ratios on D1-MSNs.
240 μm thick coronal slices containing the nucleus accumbens were prepared from brains of 8-9 week-old mice (with fluorescent D1-MSNs). After a 1 h recovery period, slices were placed in a submersion-type recording chamber and perfused (1.5-2 ml/min) at 30° C. with a bicarbonate-buffered artificial CSF saturated with 95% O2/5% CO2 and containing (in mM): 119 NaCl, 2.5 KCl, 1 NaH2PO4, 1.3 MgCl2, 2.5 CaCl2, 26.2 NaHCO3, 11 glucose, and 0.05 picrotoxin. Whole-cell voltage-clamp recordings from medium spiny neurons in the nucleus accumbens core were obtained under visual control using infrared-differential interference contrast microscopy. Whole-cell electrodes (2-4 MΩ) were filled with internal solution containing the following (in mM): 120 CsMeSO3, 15 CsCl, 8 NaCl, 0.2 EGTA, 10 HEPES, 2 Mg-ATP, 0.3 Na-GTP, 10 tetraethylammonium, and 5 QX-314 [5-N-(2,6-dimethylphenylcarbamoylmethyl)triethylammonium bromide] (308-310 mOsm). pH was adjusted to 7.3 with CsOH. Cells with series resistance above 25 MΩ or a 20% change over time were excluded. Synaptic currents were evoked using stainless-steel bipolar stimulating electrodes placed 100-150 μm rostral to the recorded neurons. EPSCs were acquired with an Axopatch 200B (Molecular Devices), filtered at 2 kHz, and digitized at 10 kHz. Acquisition and analysis was performed using pCLAMP 10.2 (Molecular Devices). To calculate AMPA/NMDA ratios, evoked synaptic responses were collected at −70 mV to measure AMPAR-mediated EPSCs and at +40 mV to measure NMDAR-mediated EPSCs. Typically, 20 responses were averaged to generate an average response. The peak AMPA response was used to calculate the AMPAR component and the amplitude at 40 ms post the AMPAR peak response was used to calculate the slower NMDA component at +40 mV to calculate the AMPA/NMDA ratio.

| Compound | mean AMPA/NMDA ratio, D1 (TNFα−/− mice, 1 day cocaine 15 mg/kg) | mean AMPA/NMDA ratio, D1 (TNFα−/− mice, 5 days cocaine 15 mg/kg) | mean AMPA/NMDA ratio, D1 (WT mice, 1 day cocaine 15 mg/kg) | mean AMPA/NMDA ratio, D1 (WT mice, 5 days cocaine 15 mg/kg) | AMPA/NMDA ratio in D1-MSNs vs saline treated controls (MPLA 10 μg, 24 hours after injection, after 10 days withdrawal from cocaine) |
| --- | --- | --- | --- | --- | --- |
| COC(=O)[C@H]1[C@@H](OC(=O)c2ccccc2)C[C@@H]2CC[C@H]1N2C [cocaine] | 4.28±0.35 | 4.97±083 | 3.38±0.57 | 2.73±0.35 |  |
| monophosphoryl lipid A [MPLA] |  |  |  |  | significantly reduced |
